Measured values from ChEMBL document CHEMBL1201862, “PubChem BioAssay data set” (2004).
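Compound exposure: 48 hours, 5 concentrations, 96-well plates. GI50 = concentration required for 50% inhibition of growth.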 Activity calls are given as the source filed them. No stated cut-off is given here; in the data, active = GI50 up to about 1.1 µM and inactive = higher.

Legend:
Experiment in all cases: NCI tumour cell line growth inhibition, 48 h
OVCAR-8 = system: OVCAR-8
UACC-62 = system: UACC-62
MOLT-4 = system: MOLT-4
COLO 205 = system: COLO 205
M19-MEL = system: M19-MEL
ACHN = system: ACHN
NCI-H460 = system: NCI-H460
HCC 2998 = system: HCC 2998
SK-MEL-2 = system: SK-MEL-2
SNB-19 = system: SNB-19
NCI-H522 = system: NCI-H522
U-251 = system: U-251
M14 = system: M14
DLD-1 = system: DLD-1
TK-10 = system: TK-10
XF498 = system: XF498
CAKI-1 = system: CAKI-1
Malme-3M = system: Malme-3M
SF-295 = system: SF-295
CCRF-CEM = system: CCRF-CEM
SF-268 = system: SF-268
LOX IMVI = system: LOX IMVI
DMS-273 = system: DMS-273
KM-20L2 = system: KM-20L2
HOP-92 = system: HOP-92
A549 = system: A549
SK-MEL-5 = system: SK-MEL-5
HL-60 = system: HL-60
OVCAR-5 = system: OVCAR-5
LXFL 529 = system: LXFL 529
NCI-H23 = system: NCI-H23
HCT-15 = system: HCT-15
KM12 = system: KM12
SK-MEL-28 = system: SK-MEL-28
HOP-62 = system: HOP-62
OVCAR-3 = system: OVCAR-3
RPMI-8226 = system: RPMI-8226
HOP-18 = system: HOP-18
SW-620 = system: SW-620
786-0 = system: 786-0
HCT-116 = system: HCT-116
SF-539 = system: SF-539
SNB-75 = system: SNB-75
A498 = system: A498
OVCAR-4 = system: OVCAR-4
IGROV-1 = system: IGROV-1
EKVX = system: EKVX
K562 = system: K562
SN12C = system: SN12C
HT-29 = system: HT-29
RXF 393 = system: RXF 393
SK-OV-3 = system: SK-OV-3
NCI-H226 = system: NCI-H226
SNB-78 = system: SNB-78
UACC-257 = system: UACC-257
DMS-114 = system: DMS-114
SR = system: SR
UO-31 = system: UO-31
MCF7 = system: MCF7
NCI/ADR-RES = system: NCI/ADR-RES

`O=S(=O)(CC1=NC2C=CC=CC2N=C1)NCc1ccccc1` (centres undefined) was tested, and the GI50 (OVCAR-8) was > 100 µM (inactive), the GI50 (UACC-62) was > 100 µM (inactive) and the GI50 (MOLT-4) was 69.5 µM (inactive). For the same molecule, the GI50 (COLO 205) was > 100 µM (inactive), the GI50 (M19-MEL) was > 100 µM (inactive) and the GI50 (ACHN) was > 100 µM (inactive). The GI50 (NCI-H460) was > 100 µM (inactive), the GI50 (HCC 2998) was 0.0156 µM (active) and the GI50 (SK-MEL-2) was > 100 µM (inactive). For the same molecule, the GI50 (SNB-19) was > 100 µM (inactive), the GI50 (NCI-H522) was 76.2 µM (inactive) and the GI50 (U-251) was > 100 µM (inactive). The GI50 (M14) was > 100 µM (inactive), the GI50 (DLD-1) was > 100 µM (inactive) and the GI50 (TK-10) was > 100 µM (inactive). For the same molecule, the GI50 (XF498) was 24.3 µM (inactive), the GI50 (CAKI-1) was > 100 µM (inactive) and the GI50 (Malme-3M) was > 100 µM (inactive). The GI50 (SF-295) was > 100 µM (inactive), the GI50 (CCRF-CEM) was > 100 µM (inactive) and the GI50 (SF-268) was > 100 µM (inactive). For the same molecule, the GI50 (LOX IMVI) was > 100 µM (inactive), the GI50 (DMS-273) was > 100 µM (inactive) and the GI50 (KM-20L2) was > 100 µM (inactive). For the same molecule, the GI50 (HOP-92) was 75.3 µM (inactive), the GI50 (A549) was > 100 µM (inactive) and the GI50 (SK-MEL-5) was 40 µM (inactive). The GI50 (HL-60) was 69.5 µM (inactive), the GI50 (OVCAR-5) was > 100 µM (inactive) and the GI50 (LXFL 529) was > 100 µM (inactive). For the same molecule, the GI50 (NCI-H23) was > 100 µM (inactive), the GI50 (HCT-15) was 81.7 µM and the GI50 (KM12) was > 100 µM (inactive). The GI50 (SK-MEL-28) was > 100 µM (inactive), the GI50 (HOP-62) was > 100 µM (inactive) and the GI50 (OVCAR-3) was 83.2 µM (inactive). The GI50 (RPMI-8226) was > 100 µM (inactive), the GI50 (HOP-18) was > 100 µM (inactive) and the GI50 (SW-620) was > 100 µM (inactive). The GI50 (786-0) was > 100 µM (inactive), the GI50 (HCT-116) was > 100 µM (inactive) and the GI50 (SF-539) was > 100 µM (inactive). For the same molecule, the GI50 (SNB-75) was > 100 µM (inactive), the GI50 (A498) was > 100 µM (inactive) and the GI50 (OVCAR-4) was 55.2 µM (inactive). The GI50 (IGROV-1) was > 100 µM (inactive), the GI50 (EKVX) was > 100 µM (inactive) and the GI50 (K562) was > 100 µM (inactive). For the same molecule, the GI50 (SN12C) was > 100 µM (inactive), the GI50 (HT-29) was > 100 µM (inactive) and the GI50 (RXF 393) was 12.9 µM (inactive). The GI50 (SK-OV-3) was > 100 µM (inactive) and the GI50 (NCI-H226) was 78.7 µM (inactive).
For `CC1=C(C(=O)Nc2ccccc2)C(c2cccc3ccccc23)C(C(=O)Nc2ccccc2)=C(C)N1`, the GI50 (OVCAR-8) was 16.7 µM (inactive), the GI50 (UACC-62) was 13.8 µM (inactive) and the GI50 (MOLT-4) was 0.767 µM (active). The GI50 (COLO 205) was 13.4 µM (inactive), the GI50 (M19-MEL) was 19 µM (inactive) and the GI50 (ACHN) was 24.2 µM (inactive). For the same molecule, the GI50 (HCC 2998) was 20.4 µM (inactive), the GI50 (SK-MEL-2) was 17 µM (inactive) and the GI50 (SNB-19) was 16.4 µM (inactive). The GI50 (NCI-H522) was 16 µM (inactive), the GI50 (U-251) was 16.5 µM (inactive) and the GI50 (M14) was 17.7 µM (inactive). The GI50 (DLD-1) was 28.2 µM (inactive), the GI50 (TK-10) was 31.5 µM (inactive) and the GI50 (CAKI-1) was 15.6 µM (inactive). The GI50 (Malme-3M) was 18.8 µM (inactive), the GI50 (SF-295) was 17.5 µM (inactive) and the GI50 (CCRF-CEM) was 26.7 µM (inactive). The GI50 (SF-268) was 21.5 µM (inactive), the GI50 (LOX IMVI) was 16.7 µM (inactive) and the GI50 (DMS-273) was 19.1 µM (inactive). For the same molecule, the GI50 (KM-20L2) was 19.3 µM (inactive), the GI50 (HOP-92) was 24 µM (inactive) and the GI50 (A549) was 28 µM (inactive). The GI50 (SNB-78) was 28.7 µM (inactive), the GI50 (SK-MEL-5) was 19.3 µM (inactive) and the GI50 (HL-60) was 17.1 µM (inactive). The GI50 (UACC-257) was 18.2 µM (inactive), the GI50 (OVCAR-5) was 23 µM (inactive) and the GI50 (LXFL 529) was 15.9 µM (inactive). For the same molecule, the GI50 (NCI-H23) was 21.7 µM (inactive), the GI50 (HCT-15) was 16.2 µM and the GI50 (DMS-114) was 24.9 µM (inactive). For the same molecule, the GI50 (SK-MEL-28) was 18 µM (inactive), the GI50 (HOP-62) was 18.7 µM (inactive) and the GI50 (OVCAR-3) was 12.8 µM (inactive). For the same molecule, the GI50 (SR) was 3.11 µM (inactive), the GI50 (HOP-18) was 24 µM (inactive) and the GI50 (UO-31) was 21.6 µM (inactive). For the same molecule, the GI50 (SW-620) was 22.4 µM (inactive), the GI50 (786-0) was 22.4 µM (inactive) and the GI50 (HCT-116) was 15.4 µM (inactive). For the same molecule, the GI50 (SF-539) was 20.4 µM (inactive), the GI50 (SNB-75) was 15.6 µM (inactive) and the GI50 (A498) was 24.1 µM (inactive). For the same molecule, the GI50 (OVCAR-4) was > 10 µM (inactive), the GI50 (IGROV-1) was 25.6 µM (inactive) and the GI50 (EKVX) was 11.8 µM (inactive). For the same molecule, the GI50 (K562) was 30.4 µM (inactive), the GI50 (SN12C) was 18 µM (inactive) and the GI50 (HT-29) was 18.8 µM (inactive). The GI50 (RXF 393) was 14.4 µM (inactive), the GI50 (SK-OV-3) was 17.1 µM (inactive) and the GI50 (NCI-H226) was 1.74 µM (inactive).
In the case of `CN(C)CCNC(=O)c1cccc2c1Nc1ccccc1S2`, the GI50 (OVCAR-8) is reported as 15.8 µM (inactive), the GI50 (UACC-62) is reported as 14.6 µM (inactive) and the GI50 (MOLT-4) is reported as 10.6 µM (inactive). The GI50 (COLO 205) was 11.8 µM (inactive), the GI50 (M19-MEL) was 15.6 µM (inactive) and the GI50 (NCI-H460) was 11.2 µM (inactive). The GI50 (HCC 2998) was 13.9 µM (inactive), the GI50 (SK-MEL-2) was 16.3 µM (inactive) and the GI50 (SNB-19) was 9.75 µM (inactive). For the same molecule, the GI50 (U-251) was 13.7 µM (inactive), the GI50 (DLD-1) was 15.6 µM (inactive) and the GI50 (MCF7) was 13 µM (inactive). The GI50 (XF498) was 12.6 µM (inactive), the GI50 (Malme-3M) was 14.8 µM (inactive) and the GI50 (SF-295) was 14.5 µM (inactive). For the same molecule, the GI50 (CCRF-CEM) was 12.4 µM (inactive), the GI50 (SF-268) was 15.8 µM (inactive) and the GI50 (LOX IMVI) was 12.2 µM (inactive). For the same molecule, the GI50 (DMS-273) was 13.7 µM (inactive), the GI50 (KM-20L2) was 16.2 µM (inactive) and the GI50 (NCI/ADR-RES) was 16.2 µM (inactive). The GI50 (HOP-92) was 2.08 µM (inactive), the GI50 (A549) was 14.7 µM (inactive) and the GI50 (SNB-78) was 12.2 µM (inactive). The GI50 (SK-MEL-5) was 13.2 µM (inactive), the GI50 (HL-60) was 5 µM (inactive) and the GI50 (UACC-257) was 13.7 µM (inactive). For the same molecule, the GI50 (OVCAR-5) was 13.4 µM (inactive), the GI50 (NCI-H23) was 14.6 µM (inactive) and the GI50 (HCT-15) was 16 µM. The GI50 (KM12) was 12.7 µM (inactive), the GI50 (DMS-114) was 6.76 µM (inactive) and the GI50 (SK-MEL-28) was 14.4 µM (inactive). The GI50 (HOP-62) was 15.7 µM (inactive), the GI50 (OVCAR-3) was 14.5 µM (inactive) and the GI50 (RPMI-8226) was 9.57 µM (inactive). For the same molecule, the GI50 (HOP-18) was 11.9 µM (inactive), the GI50 (UO-31) was 10.1 µM (inactive) and the GI50 (SW-620) was 16.7 µM (inactive). For the same molecule, the GI50 (HCT-116) was 12.2 µM (inactive), the GI50 (SF-539) was 15.2 µM (inactive) and the GI50 (SNB-75) was 6.81 µM (inactive). The GI50 (A498) was 10.6 µM (inactive), the GI50 (OVCAR-4) was 13.4 µM (inactive) and the GI50 (IGROV-1) was 11.3 µM (inactive). For the same molecule, the GI50 (EKVX) was 5.45 µM (inactive), the GI50 (K562) was 14.9 µM (inactive) and the GI50 (SN12C) was 13 µM (inactive). For the same molecule, the GI50 (HT-29) was 11.7 µM (inactive), the GI50 (RXF 393) was 9.35 µM (inactive) and the GI50 (SK-OV-3) was 16.1 µM (inactive). The GI50 (NCI-H226) was 11.5 µM (inactive).
